According to ChEMBL document CHEMBL1201862, “PubChem BioAssay data set” (2004):
Active and inactive are the calls of the source.

Key:
[1] = biological target: T1, Runt-related transcription factor 1/Core-binding factor subunit beta (Homo sapiens, UniProt Q01196+Q13951); test: disruptors of Runt domain/CBFb-SMMHC interaction – biochemical, FRET, Cerulean-Runt, Venus-CBFb-SMMHC, uHTS, […] (AID 1434); type: protein assay
[2] = biological target: T1, Runt-related transcription factor 1/Core-binding factor subunit beta; test: Runt domain/CBFb-SMMHC interaction disruptors – biochemical, TR-FRET (AID 1438); type: protein assay
H9c2 = test: cells; type: functional, cell-based; settings: Rattus norvegicus, H9c2, Myocardium;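 note: confirmatory concentration-response retest of ultra-high-throughput screening hits for modulation of myocardial damage; cell death induced by hydrogen peroxide oxidative stress; compound pretreatment for 60 min then peroxide exposure for 2 h; potency is for protecting the cells against peroxide damage rather than for killing them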
[3] = biological target: T2, Tyrosine-protein phosphatase non-receptor type 7 (Homo sapiens, UniProt P35236); test: SAR analysis of chemical inhibitors of HePTP using a Fluorescent assay - Set 2. [Related pubchem assays (depositor defined):AID1059, AID1077, AID1661, AID2085, AID521]; type: functional
T2 sequence (P35236 whole entry): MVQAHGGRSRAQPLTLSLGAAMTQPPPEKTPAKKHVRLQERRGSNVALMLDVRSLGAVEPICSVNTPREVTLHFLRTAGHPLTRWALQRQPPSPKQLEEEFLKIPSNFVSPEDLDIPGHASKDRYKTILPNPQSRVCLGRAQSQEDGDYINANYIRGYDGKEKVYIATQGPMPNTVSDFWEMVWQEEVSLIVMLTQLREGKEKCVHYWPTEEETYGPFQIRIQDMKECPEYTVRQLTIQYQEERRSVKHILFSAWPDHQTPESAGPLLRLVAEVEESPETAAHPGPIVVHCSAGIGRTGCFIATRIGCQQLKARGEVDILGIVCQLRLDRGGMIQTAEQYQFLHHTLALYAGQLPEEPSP

[4] = biological target: Dual specificity protein phosphatase 3 (Homo sapiens, UniProt P51452); test: SAR VHR1 Fluorescent Assay for In Vitro dose response studies Set 2. [Related pubchem assays (depositor defined):AID1654, AID1661, AID1878]; type: functional
Chain of Dual specificity protein phosphatase 3 (P51452 whole entry): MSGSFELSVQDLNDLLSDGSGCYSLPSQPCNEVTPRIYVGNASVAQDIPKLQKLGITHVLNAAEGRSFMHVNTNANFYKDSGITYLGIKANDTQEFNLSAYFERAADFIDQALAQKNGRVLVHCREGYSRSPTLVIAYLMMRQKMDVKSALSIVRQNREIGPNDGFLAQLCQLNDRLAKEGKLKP

[5] = biological target: T3, Heat shock factor protein 1 (Mus musculus, UniProt P38532); test: decrease of HSF1-responsive luciferase luminescence – cell-based, NIH3T3, dose retest, confirmation (AID 2382); type: functional;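 note: NIH3T3 fibroblasts with HSF1-driven luciferase reporter stressed by proteasome inhibitor MG132; luminescence from HSF1-driven luciferase expression after 8 hours of MG132 stress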
T3 sequence (P38532 whole entry): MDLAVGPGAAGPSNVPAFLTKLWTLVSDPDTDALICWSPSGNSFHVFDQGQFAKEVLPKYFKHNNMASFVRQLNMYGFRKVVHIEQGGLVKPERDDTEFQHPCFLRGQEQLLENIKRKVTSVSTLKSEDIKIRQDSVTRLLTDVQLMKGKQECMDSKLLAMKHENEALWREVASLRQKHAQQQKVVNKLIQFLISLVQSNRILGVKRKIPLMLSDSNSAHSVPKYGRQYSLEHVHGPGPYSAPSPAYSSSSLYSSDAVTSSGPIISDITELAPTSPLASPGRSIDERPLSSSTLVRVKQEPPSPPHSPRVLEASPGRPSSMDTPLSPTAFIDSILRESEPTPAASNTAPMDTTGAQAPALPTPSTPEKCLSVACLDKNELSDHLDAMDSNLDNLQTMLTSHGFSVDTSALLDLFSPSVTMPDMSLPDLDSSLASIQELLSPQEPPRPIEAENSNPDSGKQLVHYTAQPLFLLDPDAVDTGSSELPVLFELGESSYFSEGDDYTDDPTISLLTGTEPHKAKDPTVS

[6] = Trypanosoma cruzi growth suppression in host cells – NIH3T3 host cells, beta-gal luminescence, confirmation (AID 2044); type: functional, cell-based;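 note: intracellular parasites grown in NIH/3T3 mouse fibroblasts as host cells; luminescent beta-galactosidase reporter signal from transgenic T. cruzi replicating inside host cells; inhibitors lower the luminescence signal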
[7] = NIH3T3 cell viability loss – ATP luminescence, mouse fibroblasts, counter-screen, dose response (AID 2010); type: functional, cell-based;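 note: cells exposed to compound for about 90 hours before reading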
[8] = biological target: T4, G-protein coupled receptor 55 (Homo sapiens, UniProt Q9Y2T6); test: selective activators of receptor GPR55 – imaging, U2OS cells, beta-arrestin-GFP redistribution, primary screen (AID 1961); type: functional
T4 sequence (Q9Y2T6 whole entry): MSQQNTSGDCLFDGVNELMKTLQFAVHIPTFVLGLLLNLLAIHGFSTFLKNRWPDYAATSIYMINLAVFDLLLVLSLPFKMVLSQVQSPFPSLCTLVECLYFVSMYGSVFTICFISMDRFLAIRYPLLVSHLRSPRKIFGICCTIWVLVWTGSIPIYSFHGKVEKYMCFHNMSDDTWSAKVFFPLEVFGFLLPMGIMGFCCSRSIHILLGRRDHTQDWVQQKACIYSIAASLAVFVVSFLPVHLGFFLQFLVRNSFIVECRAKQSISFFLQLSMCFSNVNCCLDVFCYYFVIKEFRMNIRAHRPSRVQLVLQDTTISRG

[9] = biological target: Microphthalmia-associated transcription factor (Homo sapiens, UniProt O75030); test: reducers of TRPM1 reporter luminescence, concentration series – cell-based, SK-MEL-5, cherry-picked, set 3, MITF inhibitor project, dose response (AID 493073); type: functional;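 note: SK-MEL-5 melanoma cells with luciferase driven by the MITF target TRPM1 promoter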
Chain of Microphthalmia-associated transcription factor (O75030 whole entry): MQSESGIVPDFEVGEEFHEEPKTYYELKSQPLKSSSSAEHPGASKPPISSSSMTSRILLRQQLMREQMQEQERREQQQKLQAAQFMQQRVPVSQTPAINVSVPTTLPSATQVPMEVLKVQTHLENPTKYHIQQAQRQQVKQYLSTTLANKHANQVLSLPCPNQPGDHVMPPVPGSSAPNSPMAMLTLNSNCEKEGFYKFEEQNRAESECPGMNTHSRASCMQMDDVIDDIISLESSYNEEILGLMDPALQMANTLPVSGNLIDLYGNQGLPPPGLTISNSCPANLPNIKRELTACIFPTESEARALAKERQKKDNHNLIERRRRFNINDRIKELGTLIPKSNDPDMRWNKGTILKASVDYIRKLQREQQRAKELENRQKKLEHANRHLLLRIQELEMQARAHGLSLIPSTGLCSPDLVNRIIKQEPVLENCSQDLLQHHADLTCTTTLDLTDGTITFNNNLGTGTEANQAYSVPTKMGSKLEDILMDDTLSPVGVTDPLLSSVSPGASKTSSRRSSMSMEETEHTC

[10] = biological target: E3 ubiquitin-protein ligase Mdm2 (Homo sapiens, UniProt Q00987); test: MDM2-luc reporter signal enhancers, multi-concentration potency testing, MDM2 ubiquitin-protein ligase inhibitor program, whole-cell format, luminescence detection, 384-well microplate (AID 1394); type: functional;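 note: MDM2 E3 inhibitors raise luminescence so EC50 is for signal enhancement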
Chain of E3 ubiquitin-protein ligase Mdm2 (Q00987 whole entry): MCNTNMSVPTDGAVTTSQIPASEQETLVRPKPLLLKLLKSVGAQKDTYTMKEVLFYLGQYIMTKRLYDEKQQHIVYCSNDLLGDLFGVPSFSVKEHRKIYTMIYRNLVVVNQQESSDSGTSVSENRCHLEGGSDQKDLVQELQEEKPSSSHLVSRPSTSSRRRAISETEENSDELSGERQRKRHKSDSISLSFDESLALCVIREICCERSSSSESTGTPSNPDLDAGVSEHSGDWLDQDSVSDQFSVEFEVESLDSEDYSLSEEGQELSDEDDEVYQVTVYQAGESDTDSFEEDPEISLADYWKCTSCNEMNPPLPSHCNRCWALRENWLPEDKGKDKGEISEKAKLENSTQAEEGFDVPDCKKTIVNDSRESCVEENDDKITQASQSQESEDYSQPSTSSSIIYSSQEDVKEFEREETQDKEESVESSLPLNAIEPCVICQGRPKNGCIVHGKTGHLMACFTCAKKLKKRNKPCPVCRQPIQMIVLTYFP

[11] = biological target: T3, Heat shock factor protein 1; test: enhancement of HSF1-driven luciferase signal – cell-based, NIH3T3, luminescence, dose retest, confirmation (AID 435004); type: functional;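 note: stress induced by proteasome inhibitor MG132 added 30 min after compound; luciferase reporter driven by HSF1 response element in NIH3T3 cells; actives raise luminescence as potentiators of the MG132 stress response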
[12] = biological target: T5, Polyadenylate-binding protein 1 (Homo sapiens, UniProt P11940); test: MLLE binding blockers, Cy5 peptide tracer – biochemical, fluorescence polarization, Cy5-PAM2 peptide, secondary, miRNA deadenylation inhibitor project, dose response (AID 602260); type: functional; settings: read-out: IC50_Mean
T5 sequence (P11940 whole entry, the tested form may be a part): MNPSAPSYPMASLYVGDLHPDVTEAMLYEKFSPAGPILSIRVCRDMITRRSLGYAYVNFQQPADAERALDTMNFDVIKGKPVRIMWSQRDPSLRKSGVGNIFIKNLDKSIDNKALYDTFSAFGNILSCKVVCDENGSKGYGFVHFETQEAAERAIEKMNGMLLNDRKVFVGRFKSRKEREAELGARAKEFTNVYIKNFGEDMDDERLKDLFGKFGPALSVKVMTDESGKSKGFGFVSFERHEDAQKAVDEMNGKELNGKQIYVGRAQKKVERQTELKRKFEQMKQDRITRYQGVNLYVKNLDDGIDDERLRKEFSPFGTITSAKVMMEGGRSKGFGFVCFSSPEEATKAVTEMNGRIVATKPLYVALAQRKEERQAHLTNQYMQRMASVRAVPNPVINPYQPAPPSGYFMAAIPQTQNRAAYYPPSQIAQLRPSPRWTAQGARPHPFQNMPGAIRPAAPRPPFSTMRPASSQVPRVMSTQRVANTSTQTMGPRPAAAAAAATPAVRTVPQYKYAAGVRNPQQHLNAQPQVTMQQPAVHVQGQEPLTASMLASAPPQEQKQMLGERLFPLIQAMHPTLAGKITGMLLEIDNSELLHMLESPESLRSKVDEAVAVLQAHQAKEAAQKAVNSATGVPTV

[13] = biological target: T5, Polyadenylate-binding protein 1; test: MLLE domain peptide-binding blockers, IC50 – biochemical, fluorescence polarization, FITC-PAM2 peptide, dose response (AID 602259); type: functional; settings: read-out: IC50_Mean
Coagulation factor XII = Coagulation factor XII (Homo sapiens, UniProt P00748); type: functional;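 note: activated factor XIIa alpha cleaving a fluorogenic AMC peptide substrate; inhibitor potency from loss of enzyme activity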
Chain of Coagulation factor XII (P00748 20-372 limits assumed): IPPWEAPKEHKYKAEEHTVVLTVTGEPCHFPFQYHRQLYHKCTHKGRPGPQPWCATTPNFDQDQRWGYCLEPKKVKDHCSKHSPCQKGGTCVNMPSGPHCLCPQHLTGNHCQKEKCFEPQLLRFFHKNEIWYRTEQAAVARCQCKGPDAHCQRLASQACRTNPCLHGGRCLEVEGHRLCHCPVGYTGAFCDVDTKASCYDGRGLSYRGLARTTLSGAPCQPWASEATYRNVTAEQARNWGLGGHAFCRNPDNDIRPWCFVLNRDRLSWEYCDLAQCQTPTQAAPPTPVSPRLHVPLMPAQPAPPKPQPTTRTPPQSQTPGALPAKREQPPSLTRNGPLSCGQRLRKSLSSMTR
Chain of Coagulation factor XII (P00748 373-615 limits assumed): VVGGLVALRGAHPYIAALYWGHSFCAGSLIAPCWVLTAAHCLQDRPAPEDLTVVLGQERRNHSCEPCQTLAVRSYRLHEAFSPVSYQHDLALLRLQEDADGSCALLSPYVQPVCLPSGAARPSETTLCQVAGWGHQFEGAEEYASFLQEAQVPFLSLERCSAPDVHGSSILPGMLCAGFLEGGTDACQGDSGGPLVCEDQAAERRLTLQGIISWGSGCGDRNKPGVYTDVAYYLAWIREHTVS

[14] = HEK-293T viability loss after treatment – luminescence, T-cell screen hits, cytotoxicity control for TCR NF-kB inhibitor project, dose response (AID 489026); type: functional, cell-based;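 note: cells exposed to compound about 14 hours before the viability readout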
[15] = biological target: T6, G-protein coupled receptor 35 (Homo sapiens, UniProt Q9HC97); test: inhibition of zaprinast-stimulated GPR35 beta-arrestin translocation – imaging, U2OS, beta-arrestin-GFP, zaprinast agonist, primary screen (AID 2058); type: functional;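 note: antagonist potency meaning inhibition of agonist-induced arrestin redistribution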
T6 sequence (Q9HC97 whole entry): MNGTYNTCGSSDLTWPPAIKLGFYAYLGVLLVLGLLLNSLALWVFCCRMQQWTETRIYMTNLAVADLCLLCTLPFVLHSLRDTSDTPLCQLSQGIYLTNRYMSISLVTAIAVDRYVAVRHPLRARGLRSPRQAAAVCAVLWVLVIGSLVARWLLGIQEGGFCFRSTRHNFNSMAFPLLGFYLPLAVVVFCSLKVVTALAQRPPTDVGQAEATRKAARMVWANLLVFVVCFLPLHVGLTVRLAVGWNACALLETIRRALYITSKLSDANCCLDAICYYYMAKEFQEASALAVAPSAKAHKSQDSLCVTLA

[16] = biological target: T6, G-protein coupled receptor 35; test: SAR Analysis for the identification of Selective Antagonists of ERK1/2 Activity in GPR35-Overexpressing U2OS Cells. [Related pubchem assays: 2079, 2058 ]; type: functional, cell-based
[17] = biological target: Tyrosine-protein phosphatase non-receptor type 12 (Homo sapiens, UniProt Q05209); test: SAR Selectivity Analysis of small molecule inhibitors of PEST using pCAP in a fluorescence assay. [Related pubchem assays (depositor defined):AID1779, AID1784, AID2135]; type: functional
Chain of Tyrosine-protein phosphatase non-receptor type 12 (Q05209 whole entry): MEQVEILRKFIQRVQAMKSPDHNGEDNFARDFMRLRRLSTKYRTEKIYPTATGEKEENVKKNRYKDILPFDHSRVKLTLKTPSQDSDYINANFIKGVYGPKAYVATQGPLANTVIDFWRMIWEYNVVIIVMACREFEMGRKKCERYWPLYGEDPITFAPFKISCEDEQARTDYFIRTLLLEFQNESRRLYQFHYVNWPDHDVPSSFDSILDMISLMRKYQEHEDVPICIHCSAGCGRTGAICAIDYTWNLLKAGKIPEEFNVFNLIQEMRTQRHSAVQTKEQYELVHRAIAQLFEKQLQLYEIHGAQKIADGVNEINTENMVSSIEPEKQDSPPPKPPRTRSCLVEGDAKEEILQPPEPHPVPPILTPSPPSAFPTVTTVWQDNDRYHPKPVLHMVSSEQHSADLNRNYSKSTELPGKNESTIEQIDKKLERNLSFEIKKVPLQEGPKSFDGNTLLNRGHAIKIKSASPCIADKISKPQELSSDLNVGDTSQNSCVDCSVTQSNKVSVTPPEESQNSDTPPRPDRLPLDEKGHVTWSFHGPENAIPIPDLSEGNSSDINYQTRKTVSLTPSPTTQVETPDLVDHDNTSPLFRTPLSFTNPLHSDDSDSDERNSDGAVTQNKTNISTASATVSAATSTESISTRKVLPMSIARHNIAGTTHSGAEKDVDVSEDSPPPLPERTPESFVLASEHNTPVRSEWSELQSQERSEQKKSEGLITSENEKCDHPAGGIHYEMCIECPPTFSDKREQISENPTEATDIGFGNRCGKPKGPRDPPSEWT

[18] = biological target: T7, Tyrosine-protein phosphatase non-receptor type 22 (Homo sapiens, UniProt Q9Y2R2); test: SAR LYP1 Fluorescent Assay using OMFP substrate for In Vitro dose response studies - Set 3. [Related pubchem assays (depositor defined):AID1779, AID1784, AID2140, AID2686]; type: functional
T7 sequence (Q9Y2R2 whole entry): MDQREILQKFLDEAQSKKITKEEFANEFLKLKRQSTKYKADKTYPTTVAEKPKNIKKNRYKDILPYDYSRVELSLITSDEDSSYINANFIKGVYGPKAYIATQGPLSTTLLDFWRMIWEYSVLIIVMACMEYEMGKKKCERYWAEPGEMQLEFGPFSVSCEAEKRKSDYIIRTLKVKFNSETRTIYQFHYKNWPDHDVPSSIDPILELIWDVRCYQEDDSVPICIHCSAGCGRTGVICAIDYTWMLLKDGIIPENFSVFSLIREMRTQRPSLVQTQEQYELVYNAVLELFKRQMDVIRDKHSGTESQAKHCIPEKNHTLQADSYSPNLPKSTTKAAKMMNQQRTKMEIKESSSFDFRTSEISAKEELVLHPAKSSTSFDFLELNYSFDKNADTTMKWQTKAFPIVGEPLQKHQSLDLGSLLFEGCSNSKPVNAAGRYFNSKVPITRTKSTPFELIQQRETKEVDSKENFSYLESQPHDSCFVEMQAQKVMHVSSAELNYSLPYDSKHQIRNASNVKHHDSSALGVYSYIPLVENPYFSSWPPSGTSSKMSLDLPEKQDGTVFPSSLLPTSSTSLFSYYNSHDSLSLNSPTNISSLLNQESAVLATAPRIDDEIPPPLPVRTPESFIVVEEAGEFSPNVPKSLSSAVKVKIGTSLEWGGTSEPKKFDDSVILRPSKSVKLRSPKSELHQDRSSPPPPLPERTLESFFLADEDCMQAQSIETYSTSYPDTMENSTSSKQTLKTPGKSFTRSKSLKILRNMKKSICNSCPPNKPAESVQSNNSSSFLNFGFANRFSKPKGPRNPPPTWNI

[19] = biological target: T7, Tyrosine-protein phosphatase non-receptor type 22; test: inhibition of lymphoid tyrosine phosphatase LYP – biochemical, pCAP fluorogenic substrate, fluorescence, set 3, SAR follow-up (AID 449727); type: functional
[20] = biological target: T4, G-protein coupled receptor 55; test: blockers of GPR55 signalling, imaged – imaging, image-based, counter-screen for GPR35 antagonist project, SAR follow-up (AID 2397); type: functional
[21] = biological target: T8, Replicative DNA helicase DnaB (Mycobacterium tuberculosis, UniProt P9WMR3); test: DnaB intein splicing inhibitors, dose response, biochemical, cell-free fluorescence (AID 449749); type: functional
T8 sequence (P9WMR3 whole entry): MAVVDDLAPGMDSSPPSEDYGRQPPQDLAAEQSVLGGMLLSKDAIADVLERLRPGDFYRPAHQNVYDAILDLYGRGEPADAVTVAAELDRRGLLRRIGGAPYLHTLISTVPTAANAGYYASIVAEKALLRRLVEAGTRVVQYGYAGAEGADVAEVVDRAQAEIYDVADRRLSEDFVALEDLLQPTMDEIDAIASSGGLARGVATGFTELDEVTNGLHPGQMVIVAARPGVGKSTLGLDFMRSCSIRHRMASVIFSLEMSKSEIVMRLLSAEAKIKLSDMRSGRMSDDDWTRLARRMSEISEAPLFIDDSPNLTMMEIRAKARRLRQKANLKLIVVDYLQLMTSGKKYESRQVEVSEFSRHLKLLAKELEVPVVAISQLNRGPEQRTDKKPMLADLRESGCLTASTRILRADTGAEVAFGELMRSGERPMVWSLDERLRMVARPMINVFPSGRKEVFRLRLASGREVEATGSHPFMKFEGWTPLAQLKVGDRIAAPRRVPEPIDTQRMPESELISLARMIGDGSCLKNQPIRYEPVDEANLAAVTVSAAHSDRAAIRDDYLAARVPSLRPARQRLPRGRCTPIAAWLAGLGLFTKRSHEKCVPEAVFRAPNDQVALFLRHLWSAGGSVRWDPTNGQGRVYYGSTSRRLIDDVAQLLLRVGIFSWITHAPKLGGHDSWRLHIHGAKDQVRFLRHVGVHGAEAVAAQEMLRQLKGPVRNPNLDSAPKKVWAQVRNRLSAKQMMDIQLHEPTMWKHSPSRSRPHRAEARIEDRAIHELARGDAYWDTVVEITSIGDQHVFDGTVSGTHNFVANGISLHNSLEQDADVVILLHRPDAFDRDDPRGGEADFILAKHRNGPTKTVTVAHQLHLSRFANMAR

Protein RecA = biological target: T9, Protein RecA (Mycobacterium tuberculosis, UniProt P9WHJ3); test: Fluorescence Cell-Free Homogeneous Dose Retest to Identify Inhibitors of RecA-Intein Splicing Activity. [Related pubchem assays (depositor defined):AID2097, AID2223, AID489010, AID492950]; type: functional
T9 sequence (P9WHJ3 whole entry): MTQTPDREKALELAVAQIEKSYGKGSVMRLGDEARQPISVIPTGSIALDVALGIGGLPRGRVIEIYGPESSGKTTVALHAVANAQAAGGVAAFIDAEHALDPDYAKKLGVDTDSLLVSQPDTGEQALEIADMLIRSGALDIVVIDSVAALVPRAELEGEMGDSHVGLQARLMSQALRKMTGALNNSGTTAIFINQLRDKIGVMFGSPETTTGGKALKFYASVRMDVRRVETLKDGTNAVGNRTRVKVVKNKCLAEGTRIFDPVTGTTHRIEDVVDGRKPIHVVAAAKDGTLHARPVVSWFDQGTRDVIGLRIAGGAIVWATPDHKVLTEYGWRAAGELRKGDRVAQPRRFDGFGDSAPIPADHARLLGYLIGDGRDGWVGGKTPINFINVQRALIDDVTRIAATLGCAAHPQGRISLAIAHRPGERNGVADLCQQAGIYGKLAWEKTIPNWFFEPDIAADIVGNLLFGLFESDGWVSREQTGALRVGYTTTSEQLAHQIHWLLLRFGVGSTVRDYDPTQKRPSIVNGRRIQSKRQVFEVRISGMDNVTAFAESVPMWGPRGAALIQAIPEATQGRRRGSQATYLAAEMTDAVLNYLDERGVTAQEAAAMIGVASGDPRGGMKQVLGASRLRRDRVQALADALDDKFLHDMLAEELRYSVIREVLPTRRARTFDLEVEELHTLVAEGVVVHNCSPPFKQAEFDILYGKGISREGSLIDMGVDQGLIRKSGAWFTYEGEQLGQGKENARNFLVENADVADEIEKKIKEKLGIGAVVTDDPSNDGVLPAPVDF

T1 sequence (Q01196 whole entry, the tested form may be a part): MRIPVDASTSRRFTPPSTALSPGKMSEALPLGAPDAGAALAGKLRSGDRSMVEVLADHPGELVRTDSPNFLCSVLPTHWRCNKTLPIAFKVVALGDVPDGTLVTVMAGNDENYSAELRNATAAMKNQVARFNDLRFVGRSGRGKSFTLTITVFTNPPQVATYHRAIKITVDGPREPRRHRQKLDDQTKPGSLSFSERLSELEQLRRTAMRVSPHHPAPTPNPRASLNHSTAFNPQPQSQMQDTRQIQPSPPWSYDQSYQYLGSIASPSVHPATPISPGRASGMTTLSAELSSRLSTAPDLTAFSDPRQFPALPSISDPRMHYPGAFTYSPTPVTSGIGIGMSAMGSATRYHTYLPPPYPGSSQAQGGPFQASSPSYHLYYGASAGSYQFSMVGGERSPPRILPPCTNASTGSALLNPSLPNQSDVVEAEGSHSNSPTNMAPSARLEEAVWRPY
T1 sequence (Q13951 whole entry, the tested form may be a part): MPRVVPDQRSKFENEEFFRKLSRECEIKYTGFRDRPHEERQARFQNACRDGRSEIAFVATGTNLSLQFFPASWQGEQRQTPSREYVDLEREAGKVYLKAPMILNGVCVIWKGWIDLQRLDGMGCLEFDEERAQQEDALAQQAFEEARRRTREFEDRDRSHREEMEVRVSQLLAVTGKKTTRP

For `CC(C)c1cc(N2CCN(C(=O)c3ccco3)CC2)n2c(nc3ccccc32)c1C#N`, the IC50 [1] was > 100 µM (inactive), the IC50 [2] was > 100 µM (inactive) and the IC50 (H9c2) was 15.5 µM (active).

With `NS(=O)(=O)c1ccc(NC(=S)N2CCN(c3ccc(Cl)c(Cl)c3)CC2)cc1` the IC50 [3] was > 100 µM (inactive) and the IC50 [4] was > 100 µM (inactive).

In the case of `COc1ccc(C(=O)/C=C/C(=O)N(CC(=O)NC2CCCCC2)Cc2ccc(F)cc2)c(O)c1`, the EC50 [5] is reported as 5.29 µM (active), the EC50 [6] is reported as 1.61 µM (active) and the EC50 [7] is reported as > 60 µM (not active). For the same compound, the EC50 [8] was > 32 µM (inactive) and the AC50 [9] was 5.45 µM (active).

For `Cc1cc(C)nc(S/C=C/C(=O)c2ccccc2F)n1`, the EC50 [10] was 1 µM (active), the EC50 [11] was 14.7 µM (active) and the AC50 [9] was 5.37 µM (active). The IC50 [12] was > 66 µM (inactive) and the IC50 [13] was > 66 µM (inactive).

With `Cc1ccc(-n2c(N)c(C(=O)N3CCCCC3)sc2=S)cc1` the IC50 [3] was > 100 µM (inactive) and the IC50 [4] was 76.5 µM (active).

With `CC1(C)CC(=O)C=C(NNC(=O)c2ccccc2O)C1` the IC50 (Coagulation factor XII) was > 50 µM (inactive).

For `Nc1nc(-c2ccccc2)cc(N2CCCCC2)n1`, the IC50 [14] was > 80 µM (inactive).

In the case of `O=C(CCCN1C(=O)/C(=C/c2ccccc2)SC1=S)Nc1ccc(C(=O)O)c(O)c1`, the IC50 [15] is reported as < 0.5 µM (active), the IC50 [16] is reported as 2.67 µM (active) and the IC50 [17] is reported as 17.2 µM (active). The IC50 [18] was > 100 µM (inactive), the IC50 [19] was 85 µM (active) and the IC50 [20] was > 32 µM (inactive). For the same compound, the AC50 [21] was 12.3 µM (active) and the EC50 (Protein RecA) was 15.4 µM (active).

For `COc1ccc(OC)c(/C=N/Nc2cc(C)nc(N3CCOCC3)n2)c1`, the IC50 (Coagulation factor XII) was > 50 µM (inactive).
